# Measured values published in patent EP0477700A1, “6'-C-alkyl- or alkynyl-neplanocin A, and its preparation process and use” (priority 1990, dated 1992).
# Read-outs that look alike come from different tables or passages of the source.
# What was measured:
# adenosine deaminase = target: T1, adenosine deaminase (Bos taurus, UniProt P56658); assay: Adenosine deaminase resistance (remaining compound measured by HPLC); conditions: for Percent remainder 0 minute / Percent remainder 30 minutes: 5 mM compound in 0.05 M Tris-HCl buffer (pH 7.2), adenosine deaminase (calf intestine), 25°C
# T1 sequence (P56658 1-363): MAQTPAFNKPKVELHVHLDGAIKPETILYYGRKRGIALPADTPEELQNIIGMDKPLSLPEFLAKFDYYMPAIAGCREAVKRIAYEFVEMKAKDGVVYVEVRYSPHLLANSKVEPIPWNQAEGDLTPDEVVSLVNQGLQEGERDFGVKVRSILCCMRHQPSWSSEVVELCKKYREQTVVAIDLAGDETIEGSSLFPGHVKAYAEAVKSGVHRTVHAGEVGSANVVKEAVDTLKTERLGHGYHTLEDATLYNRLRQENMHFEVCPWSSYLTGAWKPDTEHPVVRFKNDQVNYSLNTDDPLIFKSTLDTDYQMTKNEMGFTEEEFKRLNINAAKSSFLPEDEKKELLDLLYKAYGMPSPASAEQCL
# [1] = tested on: Vesicular Stomatitis Virus (VSV); assay: microbe, parasite or virus in culture; format: cell-based; conditions: 36 h
# Vero cells = assay: Cytotoxicity in Vero cells (minimum cytotoxicity concentration)
# parainfulenza virus = assay: Antiviral activity against parainfluenza virus in Vero cells (minimum virus growth inhibitory concentration); format: cell-based
SMILES,Percent remainder 0 minute (adenosine deaminase) [%],Percent remainder 30 minutes (adenosine deaminase) [%],MIC [1] [µg/mL],MCC (Vero cells),"MIC (parainfulenza virus; minimum virus growth inhibitory concentration, parainfulenza virus, Vero cells, read-out: MIC) [µg/mL]",inactivated (adenosine deaminase; summary of the adenosine deaminase resistance test (conditions of Table 3)) [%],MIC (parainfulenza virus) [µg/mL]
"CCC(O)C1=C[C@@H](n2cnc3c(N)ncnc32)[C@H](O)[C@@H]1O (stereo partly shown) [6'-C-Ethylneplanocin A, 6'-C-ethylneplanocin A]",100,94,,,,,
"C#CC(O)C1=C[C@@H](n2cnc3c(N)ncnc32)[C@H](O)[C@@H]1O (stereo partly shown) [6'-C-Ethynylneplanocin A, 6'-C-ethynylneplanocin A]",100,96,0.1,,,,
"CC(O)C1=C[C@@H](n2cnc3c(N)ncnc32)[C@H](O)[C@@H]1O (stereo partly shown) [6'-C-Methylneplanocin A, 6'-C-methylneplanocin A]",100,92,0.1,≧400 µg/mℓ,0.1,,
Nc1ncnc2c1ncn2[C@@H]1C=C(CO)[C@@H](O)[C@H]1O [Neplanocin A],100,0,3.9,≧40 µg/mℓ,,100,0.1
